Consider two compounds from the NIST ThermoML archive (doi:10.1016/j.tca.2016.04.007).

The structures appear in SMILES notation. ± gives the expanded uncertainty stated by the source.

The conditions of data set [1]: Crystal; DTA.
A short description of data set [2]: Molar enthalpy of transition or fusion. As to conditions: Crystal; DSC.

For the compound `CCCCCCCCCCCCCCCCCCBr` [1-bromooctadecane], the Normal melting temperature in data set [1] is 23.50 ± 3 °C. For the same compound, the “Molar enthalpy of transition or fusion” value in data set [2] came out at 12.9 ± 0.311 kcal/mol.

Regarding `CCCCCCCCCCCCCCCCBr` [1-bromohexadecane], in data set [1], the Normal melting temperature came to 14.20 ± 3 °C. Moreover, in data set [2], the “Molar enthalpy of transition or fusion” value was 10.9 ± 0.287 kcal/mol.
